Legend:
nitroreductase = nitroreductase (Escherichia coli, UniProt P38489); settings: substrate for nitroreductase; due to permeability of the cytotoxic metabolite (Bridgewater et al., 1997; Wilson et al., 2002); cited from earlier work
zebrafish = settings: in vivo; cited from earlier work
[1] = tested on: unc-CFP-Nitro expressing cells; test: nitroreductase-based pro-drug conversion and cellular ablation in transient transgenic zebrafish embryos; assay type: in vivo; settings: metronidazole 10 mM, 5 mM, 2.5 mM in embryo medium; treated from 62 hpf, imaged at 118 hpf; untreated embryos keep both reporters
Method: In order to determine the efficacy of nitroreductase-based pro-drug conversion and subsequent cellular ablation in transient transgenic zebrafish the following experiment was performed: Male and female zebrafish from a ‘transparent’ strain (e.g., harboring the roy mutation) were allowed to mate over egg collection chambers at light onset. Fertilized eggs were collected every 15 minutes and placed in petri dishes containing embryo medium (0.3X Danieau's solution containing 100 units/ml penicillin and 100 μg/ml streptomycin). Eggs were dispensed into a silicone chambers and oriented such that the cell side was facing up. For injections, DNA plasmids were diluted into 1X Danieau's solution to a final concentration of 10 ng/μl. DNA plasmids used for this experiment included: 1) An alpha-1-tubulin promoter driving expression of a Gal4/VP 16 “driver” protein (α-1-tub::Gal4/VP16); 2) A UAS regulated red control fluorescent reporter protein (UAS::DsRed) and; 3) A UAS regulated cyan fluorescent reporter protein (unc-CFP) fused to nitroreductase (UAS::unc-CFP-Nitro, see FIG. 2 and FIG. 3). […] At 28 hpf, injected embryos were screened for equivalent expression of the DsRed reporter (control cells) and the unc-CFP-Nitro ablation/reporter (targeted cells) using standard fluorescence microscopy. […]

Chain of nitroreductase (P38489 whole entry): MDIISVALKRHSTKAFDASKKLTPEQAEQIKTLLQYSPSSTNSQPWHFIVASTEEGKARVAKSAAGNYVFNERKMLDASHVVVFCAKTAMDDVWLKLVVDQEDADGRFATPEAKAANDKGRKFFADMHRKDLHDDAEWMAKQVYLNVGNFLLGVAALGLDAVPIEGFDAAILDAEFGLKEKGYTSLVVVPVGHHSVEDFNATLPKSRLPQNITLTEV

Structure (SMILES) | bystander effect (nitroreductase) | general toxicity (zebrafish) | ablation of reporter-expressing cells (confocal imaging of unc-CFP-Nitro vs DsRed control reporter) [1]
NC(=O)c1cc(N2CC2)c([N+](=O)[O-])cc1[N+](=O)[O-] [CE 1954, 5-(aziridin-1-yl)-2,4-dinitrobenzamide] | specifically promote the bystander effect |  | 
Cc1ncc([N+](=O)[O-])n1CCO [metronidazole] |  | no general toxicity | selective elimination of unc-CFP-Nitro expressing cells

Source: patent US8071838B2, “Targeted and regional cellular ablation in zebrafish” (Washington University in St. Louis, priority 2003, dated 2011)
